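Tested at 5 concentrations; 48 h exposure; 96-well plates; endpoints linearly interpolated, else capped at highest concentration. TGI: total growth inhibition.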
Key:
Experiment in all cases: inhibition of tumour cell growth, NCI panel, 48 h
A549 NSCLC = tested on: A549 NSCLC
K-562 leukemia = tested on: K-562 leukemia
OVCAR-4 ovarian = tested on: OVCAR-4 ovarian
NCI-H522 lung = tested on: NCI-H522 lung
KM12 colon = tested on: KM12 colon
MDA-MB-231 breast = tested on: MDA-MB-231 breast
NCI-H226 lung = tested on: NCI-H226 lung
HOP-62 NSCLC = tested on: HOP-62 NSCLC
CAKI-1 renal = tested on: CAKI-1 renal
SN12C renal = tested on: SN12C renal
MALME-3M melanoma = tested on: MALME-3M melanoma
LOX IMVI melanoma = tested on: LOX IMVI melanoma
ACHN renal = tested on: ACHN renal
CCRF-CEM leukemia = tested on: CCRF-CEM leukemia

Row | Structure (SMILES) | TGI (A549 NSCLC) [µM] | TGI (K-562 leukemia) [µM] | TGI (OVCAR-4 ovarian) [µM] | TGI (NCI-H522 lung) [µM] | TGI (KM12 colon) [µM] | TGI (MDA-MB-231 breast) [µM] | TGI (NCI-H226 lung) [µM] | TGI (HOP-62 NSCLC) [µM] | TGI (CAKI-1 renal) [µM] | TGI (SN12C renal) [µM] | TGI (MALME-3M melanoma) [µM] | TGI (LOX IMVI melanoma) [µM] | TGI (ACHN renal) [µM] | TGI (CCRF-CEM leukemia) [µM]
1 | CCCCCC(CO)C(O)(C(F)(F)F)C(F)(F)F (stereo not given) | > 10 | > 10 | > 10 | > 10 | > 10 | > 10 | > 10 | > 10 | > 10 | > 10 | > 10 | > 10 | > 10 | –
2 | C=C1CC(C)(COc2ccc3ccc(=O)oc3c2)OC1=O (stereo not given) | 30.5 | 32.1 | 11.1 | 2.84 | 17.6 | 24.6 | 27.3 | 39.5 | 7.84 | 25 | 6.31 | 5.65 | 11.2 | 5.11
3 | CC1(C)CCCCCCC2OC2CCCCCC(C)(C)C1=O (stereo not given) | > 100 | > 82.6 | > 100 | > 80.4 | 97 | > 100 | > 94.4 | > 100 | > 100 | > 64 | > 100 | > 100 | > 65 | > 69.4
4 | CCN(CC)C(=S)SNCc1ccc(S(N)(=O)=O)cc1 | 26.3 | > 100 | 48.1 | 22.2 | 29.2 | 37.1 | > 63.2 | 30.5 | 31.3 | 28.9 | 30.9 | 28.8 | 29.6 | –
5 | COc1cc(NP(=O)(Oc2ccccc2)Oc2ccccc2)ccc1Nc1c2ccccc2nc2c1[nH]c1ccccc12 | 2.22 | 6.71 | 15.3 | 7.32 | > 100 | 28.6 | 20.2 | 2.8 | 17.3 | 2.09 | 29.1 | > 100 | 11.9 | –
6 | N#Cc1sc2c(c1OC(=O)c1cccs1)c(=O)n(-c1ccccc1)c(=S)n2-c1ccccc1 | > 100 | 83.4 | 73.5 | 34.3 | 43.6 | 45.1 | 43.4 | 49.5 | > 100 | 47.2 | 40.7 | 54.2 | – | –
7 | O=c1oc2ccccc2c(O)c1C(c1ccc(/C=C/c2ccccc2)cc1)c1c(O)c2ccccc2oc1=O | – | > 100 | > 100 | 49.1 | 64.4 | 67.9 | 74.4 | 89.3 | 61.3 | 53.9 | 65.7 | 73.3 | 35.6 | > 100
8 | O=c1[nH]nc(Cc2ccccc2)n1/N=C/c1ccccc1Cl | > 100 | > 100 | > 100 | > 100 | > 100 | > 100 | > 100 | – | > 100 | > 100 | > 100 | > 100 | > 100 | –
9 | CC1=NN(c2nc(N)nc(CSCc3nc(N)nc(N(C)C)n3)n2)C(C)(C)C1 | > 100 | 32.1 | > 100 | > 100 | > 100 | > 100 | > 100 | > 100 | > 100 | > 100 | – | > 100 | > 100 | > 100
10 | CC1=C(C(=O)NCCc2ccccc2)CC(C(=O)NCCc2ccccc2)=C(C)N1 | > 100 | > 100 | > 100 | > 100 | > 100 | > 100 | > 100 | > 100 | > 100 | > 100 | – | > 100 | > 100 | 76.5
11 | CN(C(=O)Cc1ccc(Cl)c(Cl)c1)[C@@H]1CCCC[C@H]1[N+]1(C)CC=CC1 | > 100 | > 100 | > 100 | > 100 | > 100 | > 100 | > 100 | > 100 | > 100 | > 100 | > 100 | > 100 | > 100 | –
12 | N#CC(Nc1ccccc1)c1ccc(C(C#N)Nc2ccccc2)cc1 (stereo not given) | > 100 | > 100 | > 100 | > 100 | > 100 | > 100 | > 100 | – | > 100 | > 100 | > 100 | > 100 | > 100 | 48
13 | O=C1c2ccccc2-c2ccc(N=Nc3c(O)ccc4ccccc34)cc21 | > 100 | > 100 | > 100 | > 100 | > 100 | > 100 | > 100 | > 100 | > 100 | > 100 | > 100 | > 100 | – | 35
14 | O=c1cc(CBr)c2ccc(O)cc2o1 | > 100 | > 100 | – | > 100 | > 100 | > 100 | > 100 | 50.3 | > 100 | > 100 | > 100 | > 100 | > 100 | > 100
15 | Cc1cccc(C)c1NC(=S)NC=C(C(N)=O)C(N)=O | > 100 | > 100 | > 100 | > 100 | > 100 | > 100 | > 100 | > 100 | > 100 | > 100 | – | > 100 | > 100 | > 100
16 | c1ccc(Nc2nnc(Cn3ccc4ccccc43)s2)cc1 | > 100 | > 100 | > 100 | > 100 | > 100 | > 100 | > 100 | > 100 | 70.6 | > 100 | – | > 100 | > 100 | > 100
17 | NC1=NN(c2ccccc2)C2(O)c3ccncc3C3=NN(c4ccccc4)C(=O)C132 (stereo not given) | > 100 | > 100 | > 100 | > 100 | > 100 | > 100 | > 100 | – | > 100 | > 100 | > 100 | > 100 | > 100 | –
